Legend:
Experiment in all cases: ITC, one-site model
Format in all cases: binding
TrpR [1] = biological target: T1, TrpR (Escherichia coli, UniProt P0A881, S88Y/T44L/T81M)
T1 construct: TrpR without fluorescent proteins, pET21b(+), expressed in E. coli BL21(DE3), NiIMAC and Superdex S75; homodimer; template Trp-CTY / Trp-CTYT sensors (Addgene 13533, 13534)
From the text: (§1) ITC, one-site model on TrpR

TrpR [2] = biological target: T2, TrpR (Escherichia coli, UniProt P0A881)
T2 construct: TrpR without fluorescent proteins, pET21b(+), expressed in E. coli BL21(DE3), NiIMAC and Superdex S75; homodimer; template Trp-CTY / Trp-CTYT sensors (Addgene 13533, 13534)
From the text: as §1

TrpR [3] = biological target: T3, TrpR (Escherichia coli, UniProt P0A881, M42F/N87G/S88Y/T44L/T81M)
T3 construct: TrpR without fluorescent proteins, pET21b(+), expressed in E. coli BL21(DE3), NiIMAC and Superdex S75; homodimer; template Trp-CTY / Trp-CTYT sensors (Addgene 13533, 13534)
From the text: as §1

TrpR [4] = biological target: T4, TrpR (Escherichia coli, UniProt P0A881, N87G/S88Y/T44L/T81M)
T4 construct: TrpR without fluorescent proteins, pET21b(+), expressed in E. coli BL21(DE3), NiIMAC and Superdex S75; homodimer; template Trp-CTY / Trp-CTYT sensors (Addgene 13533, 13534)
From the text: as §1

TrpR [5] = biological target: T5, TrpR (Escherichia coli, UniProt P0A881, S88Y/T44L)
T5 construct: TrpR without fluorescent proteins, pET21b(+), expressed in E. coli BL21(DE3), NiIMAC and Superdex S75; homodimer; template Trp-CTY / Trp-CTYT sensors (Addgene 13533, 13534)
From the text: as §1

TrpR [6] = biological target: T6, TrpR (Escherichia coli, UniProt P0A881, S88Y)
T6 construct: TrpR without fluorescent proteins, pET21b(+), expressed in E. coli BL21(DE3), NiIMAC and Superdex S75; homodimer; template Trp-CTY / Trp-CTYT sensors (Addgene 13533, 13534)
From the text: as §1

O=C(O)Cc1c[nH]c2ccccc12 [IAA]
Kd (TrpR [1]): 3 ± 0.1 µM
Kd (TrpR [2]): 137.4 ± 0.5 µM
Kd (TrpR [3]): 1.5 ± 0.1 µM
Kd (TrpR [4]): 1.6 µM
Kd (TrpR [5]): 7.8 ± 0.3 µM
Kd (TrpR [6]): 14.6 ± 0.1 µM

N#CCc1c[nH]c2ccccc12 [IAN]
Kd (TrpR [1]): 33.6 ± 0.2 µM
Kd (TrpR [2]): 63.7 ± 1.7 µM
Kd (TrpR [3]): 14.3 ± 0.4 µM
Kd (TrpR [4]): 46.4 ± 1.7 µM
Kd (TrpR [5]): 19.5 ± 0.6 µM
Kd (TrpR [6]): 17.9 ± 0.6 µM

N[C@@H](Cc1c[nH]c2ccccc12)C(=O)O [TRP]
Kd (TrpR [2]): 25 ± 0.7 µM

Source: PMC8081663, “A biosensor for the direct visualization of auxin” (Nature, 2021)
